Assay results published in the kinase profiling compilation of Christmann-Franck et al. (2016).

Experiments:
Test in all cases: Caliper, Mobility shift assay off-chip
RPS6KA1 KD1 KD2 (rat) = conditions: accession and sequence are those of the human protein
MAPK1 (mouse) = conditions: accession and sequence are those of the human protein
ROCK2 (rat) = conditions: accession and sequence are those of the human protein
PRKACA (cow) = conditions: accession and sequence are those of the human protein
IRAK1 (human) = IRAK1 (human) (UniProt P51617)
[1] = tested on: MAPK14 (human), Q16539 [T106M]
MYLK3 (human) = MYLK3 (human) (UniProt Q32MK0)
RET (human) = RET (human) (UniProt P07949)
STK33 (human) = STK33 (human) (UniProt Q9BYT3)
EPHA5 (human) = EPHA5 (human) (UniProt P54756)
SGK3 (human) = SGK3 (human) (UniProt Q96BR1)
[2] = tested on: CHEK2 (human), O96017 [R145W]
LCK (human) = LCK (human) (UniProt P06239)
[3] = tested on: FGFR1 (human), P11362 [V561M]
CDK5 CDK5R1 p35 (human) = CDK5 CDK5R1 p35 (human) (UniProt Q00535+Q15078)
CSNK1G2 (human) = CSNK1G2 (human) (UniProt P78368)
HCK (human) = HCK (human) (UniProt P08631)
PAK3 (human) = PAK3 (human) (UniProt O75914)
WNK3 (human) = WNK3 (human) (UniProt Q9BYP7)
PRKCQ (human) = PRKCQ (human) (UniProt Q04759)
[4] = tested on: PDGFRA (human), P16234 [D842V]
CHUK (human) = CHUK (human) (UniProt O15111)
ROS1 (human) = ROS1 (human) (UniProt P08922)
FLT1 (human) = FLT1 (human) (UniProt P17948)
PRKACA (human) = PRKACA (human) (UniProt P17612)
[5] = tested on: ABL1 (human), P00519 [T315I]
RPS6KA3 KD1 KD2 (human) = RPS6KA3 KD1 KD2 (human) (UniProt P51812)
MAP2K1 (human) = MAP2K1 (human) (UniProt Q02750)
MTOR FKBP1A (human) = MTOR FKBP1A (human) (UniProt P42345+P62942)
MTOR (human) = MTOR (human) (UniProt P42345)
[6] = tested on: TEK (human), Q02763 [R849W]
GRK7 (human) = GRK7 (human) (UniProt Q8WTQ7)
[7] = tested on: SRC (human), P12931 [T341M]
[8] = tested on: ABL1 (human), P00519 [H396P]
[9] = tested on: TEK (human), Q02763 [Y897S]
[10] = tested on: BTK (human), Q06187 [R28H]
PLK1 (human) = PLK1 (human) (UniProt P53350)
[11] = tested on: ABL1 (human), P00519 [Y253F]
[12] = tested on: RET (human), P07949 [V804M]
TXK (human) = TXK (human) (UniProt P42681)
[13] = tested on: ABL1 (human), P00519 [Q252H]

Sequence of PDGFRA (human), P16234 [D842V] (P16234 whole entry D842V, looked up): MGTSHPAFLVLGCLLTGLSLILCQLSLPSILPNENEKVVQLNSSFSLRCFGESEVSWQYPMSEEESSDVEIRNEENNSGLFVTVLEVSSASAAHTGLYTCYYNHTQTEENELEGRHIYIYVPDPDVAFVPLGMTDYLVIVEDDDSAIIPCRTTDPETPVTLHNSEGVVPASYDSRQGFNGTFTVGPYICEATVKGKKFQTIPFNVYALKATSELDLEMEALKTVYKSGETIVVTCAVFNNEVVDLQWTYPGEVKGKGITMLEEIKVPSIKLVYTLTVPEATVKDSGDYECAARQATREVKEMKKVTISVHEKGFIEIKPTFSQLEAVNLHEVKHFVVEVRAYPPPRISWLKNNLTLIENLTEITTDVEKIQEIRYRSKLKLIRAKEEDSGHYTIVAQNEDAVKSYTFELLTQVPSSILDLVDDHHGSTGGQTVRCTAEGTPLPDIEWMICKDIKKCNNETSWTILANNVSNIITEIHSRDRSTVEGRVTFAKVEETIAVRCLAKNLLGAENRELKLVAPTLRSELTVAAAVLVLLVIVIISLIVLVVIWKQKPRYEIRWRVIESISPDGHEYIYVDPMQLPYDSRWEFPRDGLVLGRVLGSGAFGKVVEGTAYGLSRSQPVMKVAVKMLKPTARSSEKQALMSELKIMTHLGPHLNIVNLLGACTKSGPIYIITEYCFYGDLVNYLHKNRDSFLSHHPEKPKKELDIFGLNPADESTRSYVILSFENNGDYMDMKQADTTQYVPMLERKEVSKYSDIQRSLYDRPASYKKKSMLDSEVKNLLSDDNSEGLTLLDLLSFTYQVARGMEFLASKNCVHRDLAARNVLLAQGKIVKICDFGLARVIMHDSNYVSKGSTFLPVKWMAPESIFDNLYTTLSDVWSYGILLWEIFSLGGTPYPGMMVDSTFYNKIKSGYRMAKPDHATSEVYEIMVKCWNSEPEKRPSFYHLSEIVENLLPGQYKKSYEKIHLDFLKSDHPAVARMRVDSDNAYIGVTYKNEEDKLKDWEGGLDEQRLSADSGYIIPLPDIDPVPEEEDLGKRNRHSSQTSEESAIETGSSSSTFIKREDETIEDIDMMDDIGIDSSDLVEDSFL
Sequence of PAK3 (human) (O75914 whole entry, looked up): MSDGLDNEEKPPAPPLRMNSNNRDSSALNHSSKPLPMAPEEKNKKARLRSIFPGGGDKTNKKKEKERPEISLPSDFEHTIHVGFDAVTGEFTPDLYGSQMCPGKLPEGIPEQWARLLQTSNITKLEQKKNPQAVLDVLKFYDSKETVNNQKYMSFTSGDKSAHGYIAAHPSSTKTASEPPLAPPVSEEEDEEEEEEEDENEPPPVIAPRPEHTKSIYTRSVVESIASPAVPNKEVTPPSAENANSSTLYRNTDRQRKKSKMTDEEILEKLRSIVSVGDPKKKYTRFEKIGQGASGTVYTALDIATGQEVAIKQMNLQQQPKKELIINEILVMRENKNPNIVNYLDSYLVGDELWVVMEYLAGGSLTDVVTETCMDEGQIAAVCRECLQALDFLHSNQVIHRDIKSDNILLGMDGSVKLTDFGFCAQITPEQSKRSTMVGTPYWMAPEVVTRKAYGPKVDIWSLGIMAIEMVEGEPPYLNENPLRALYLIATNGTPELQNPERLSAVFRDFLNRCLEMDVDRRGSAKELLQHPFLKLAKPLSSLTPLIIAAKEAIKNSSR
Sequence of STK33 (human) (Q9BYT3 whole entry, looked up): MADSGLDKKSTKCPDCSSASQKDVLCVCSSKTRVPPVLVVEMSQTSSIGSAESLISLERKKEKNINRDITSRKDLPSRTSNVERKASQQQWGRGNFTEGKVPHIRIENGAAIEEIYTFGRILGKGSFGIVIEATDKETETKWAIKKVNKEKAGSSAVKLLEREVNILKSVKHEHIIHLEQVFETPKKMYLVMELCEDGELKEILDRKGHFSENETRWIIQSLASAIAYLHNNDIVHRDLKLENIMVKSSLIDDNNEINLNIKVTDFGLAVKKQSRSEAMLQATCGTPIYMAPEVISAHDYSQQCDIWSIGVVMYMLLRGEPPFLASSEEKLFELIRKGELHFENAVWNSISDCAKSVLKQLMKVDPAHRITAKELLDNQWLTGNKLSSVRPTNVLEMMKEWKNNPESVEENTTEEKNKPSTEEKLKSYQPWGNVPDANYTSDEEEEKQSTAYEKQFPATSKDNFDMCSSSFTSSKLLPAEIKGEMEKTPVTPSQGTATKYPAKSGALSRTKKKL
Sequence of CHEK2 (human), O96017 [R145W] (O96017 whole entry R145W, looked up): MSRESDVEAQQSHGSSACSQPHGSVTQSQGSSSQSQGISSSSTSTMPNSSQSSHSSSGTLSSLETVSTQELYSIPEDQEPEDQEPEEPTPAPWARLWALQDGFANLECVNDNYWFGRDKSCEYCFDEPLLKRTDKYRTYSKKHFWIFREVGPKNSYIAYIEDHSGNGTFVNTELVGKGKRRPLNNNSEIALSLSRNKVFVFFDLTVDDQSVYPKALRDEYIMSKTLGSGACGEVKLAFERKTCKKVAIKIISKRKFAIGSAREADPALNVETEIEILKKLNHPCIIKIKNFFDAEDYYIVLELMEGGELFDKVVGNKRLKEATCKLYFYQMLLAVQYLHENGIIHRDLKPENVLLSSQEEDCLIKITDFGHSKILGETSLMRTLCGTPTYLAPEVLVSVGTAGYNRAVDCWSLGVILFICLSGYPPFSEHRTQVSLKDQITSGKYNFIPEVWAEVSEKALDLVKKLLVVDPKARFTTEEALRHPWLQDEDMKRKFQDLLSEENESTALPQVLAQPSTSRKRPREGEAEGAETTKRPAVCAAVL
Sequence of CSNK1G2 (human) (P78368 whole entry, looked up): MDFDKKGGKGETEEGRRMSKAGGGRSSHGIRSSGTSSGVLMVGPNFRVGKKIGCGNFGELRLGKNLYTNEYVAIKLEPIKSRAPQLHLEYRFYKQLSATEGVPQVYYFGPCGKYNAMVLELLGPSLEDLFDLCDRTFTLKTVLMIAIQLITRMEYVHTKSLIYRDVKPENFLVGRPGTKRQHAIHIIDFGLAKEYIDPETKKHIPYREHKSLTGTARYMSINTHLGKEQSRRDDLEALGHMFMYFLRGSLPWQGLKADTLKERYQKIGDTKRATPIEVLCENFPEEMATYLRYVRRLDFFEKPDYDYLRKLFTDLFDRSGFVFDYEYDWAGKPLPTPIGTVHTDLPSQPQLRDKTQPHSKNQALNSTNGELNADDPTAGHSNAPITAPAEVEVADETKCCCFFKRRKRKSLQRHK
Sequence of MAP2K1 (human) (Q02750 whole entry, looked up): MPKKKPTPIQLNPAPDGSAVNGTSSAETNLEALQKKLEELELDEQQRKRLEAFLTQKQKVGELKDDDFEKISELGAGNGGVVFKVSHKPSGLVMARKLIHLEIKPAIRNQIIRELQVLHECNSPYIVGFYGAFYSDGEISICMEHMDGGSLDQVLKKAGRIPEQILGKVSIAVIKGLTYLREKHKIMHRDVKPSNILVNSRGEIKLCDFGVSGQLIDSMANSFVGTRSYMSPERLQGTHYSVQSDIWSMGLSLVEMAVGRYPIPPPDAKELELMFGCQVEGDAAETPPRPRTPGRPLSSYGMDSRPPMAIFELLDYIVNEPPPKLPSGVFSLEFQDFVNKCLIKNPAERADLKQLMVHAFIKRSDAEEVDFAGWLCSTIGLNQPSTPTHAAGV
Sequence of EPHA5 (human) (P54756 whole entry, looked up): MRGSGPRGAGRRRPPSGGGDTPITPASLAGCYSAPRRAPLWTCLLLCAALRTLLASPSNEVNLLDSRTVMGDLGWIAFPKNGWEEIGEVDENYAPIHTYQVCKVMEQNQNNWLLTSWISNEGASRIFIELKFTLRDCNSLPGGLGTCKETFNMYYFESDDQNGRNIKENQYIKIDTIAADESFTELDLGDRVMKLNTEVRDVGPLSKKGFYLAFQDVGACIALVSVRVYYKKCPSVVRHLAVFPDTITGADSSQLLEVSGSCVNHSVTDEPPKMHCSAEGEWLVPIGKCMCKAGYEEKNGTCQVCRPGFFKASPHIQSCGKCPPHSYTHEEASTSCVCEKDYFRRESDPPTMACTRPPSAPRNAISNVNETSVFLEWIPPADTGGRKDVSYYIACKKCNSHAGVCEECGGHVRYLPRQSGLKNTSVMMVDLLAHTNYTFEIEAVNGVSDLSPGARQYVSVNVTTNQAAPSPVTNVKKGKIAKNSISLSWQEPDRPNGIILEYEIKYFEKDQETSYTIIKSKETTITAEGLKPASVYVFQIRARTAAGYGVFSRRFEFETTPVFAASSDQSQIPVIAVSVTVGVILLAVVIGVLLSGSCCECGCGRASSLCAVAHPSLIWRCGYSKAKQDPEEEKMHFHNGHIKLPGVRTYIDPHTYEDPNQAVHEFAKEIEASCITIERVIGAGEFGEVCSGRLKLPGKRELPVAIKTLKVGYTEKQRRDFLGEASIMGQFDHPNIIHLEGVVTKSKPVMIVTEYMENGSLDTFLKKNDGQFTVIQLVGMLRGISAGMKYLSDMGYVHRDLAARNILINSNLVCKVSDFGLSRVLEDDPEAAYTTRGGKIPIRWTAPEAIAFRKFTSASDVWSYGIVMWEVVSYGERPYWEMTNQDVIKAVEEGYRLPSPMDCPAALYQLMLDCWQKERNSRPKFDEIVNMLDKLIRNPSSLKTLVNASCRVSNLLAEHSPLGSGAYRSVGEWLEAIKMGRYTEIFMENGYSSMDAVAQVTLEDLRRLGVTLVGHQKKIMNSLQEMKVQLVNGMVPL
Sequence of MAPK14 (human), Q16539 [T106M] (Q16539 whole entry T106M, looked up): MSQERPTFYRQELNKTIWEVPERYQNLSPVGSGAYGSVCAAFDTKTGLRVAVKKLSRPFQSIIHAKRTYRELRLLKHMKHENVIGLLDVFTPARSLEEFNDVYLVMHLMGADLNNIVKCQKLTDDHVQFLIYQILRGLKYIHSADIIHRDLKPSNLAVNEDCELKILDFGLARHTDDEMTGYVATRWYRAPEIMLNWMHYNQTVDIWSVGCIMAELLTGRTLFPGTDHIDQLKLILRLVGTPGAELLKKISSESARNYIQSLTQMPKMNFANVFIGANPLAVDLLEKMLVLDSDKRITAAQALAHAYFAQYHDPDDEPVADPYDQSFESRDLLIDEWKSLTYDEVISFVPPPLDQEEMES
Sequence of MTOR FKBP1A (human) (P62942 whole entry, looked up, other chains not shown): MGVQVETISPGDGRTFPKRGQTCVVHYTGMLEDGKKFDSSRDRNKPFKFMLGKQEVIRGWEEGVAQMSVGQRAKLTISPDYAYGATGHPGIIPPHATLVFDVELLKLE

Work on CC(C)(C)c1nc2c3ccc(F)cc3c3c(=O)[nH]ccc3c2[nH]1 yielded a residual activity (RPS6KA1 KD1 KD2 (rat); compound 10.0 µM) of 10%, a residual activity (MAPK1 (mouse); compound 10.0 µM) of 11% and a residual activity (ROCK2 (rat); compound 10.0 µM) of 21%. The residual activity (PRKACA (cow); compound 10.0 µM) was 45%.
Work on COc1ccc(C#Cc2ccc3ncc4ncn(-c5ccc(CCN)cc5)c4c3c2)cc1 yielded a residual activity (IRAK1 (human); compound 10.0 µM) of 58%, a residual activity ([1]; compound 10.0 µM) of 79% and a residual activity (MYLK3 (human); compound 10.0 µM) of 29%. The residual activity (RET (human); compound 10.0 µM) was 9%, the residual activity (STK33 (human); compound 10.0 µM) was 58% and the residual activity (EPHA5 (human); compound 10.0 µM) was 90%. For the same compound, the residual activity (SGK3 (human); compound 10.0 µM) was 12%, the residual activity ([2]; compound 10.0 µM) was 1% and the residual activity (LCK (human); compound 10.0 µM) was 65%. For the same compound, the residual activity ([3]; compound 10.0 µM) was 6%, the residual activity (CDK5 CDK5R1 p35 (human); compound 10.0 µM) was 98% and the residual activity (CSNK1G2 (human); compound 10.0 µM) was 39%. The residual activity (HCK (human); compound 10.0 µM) was 63%, the residual activity (PAK3 (human); compound 10.0 µM) was 38% and the residual activity (WNK3 (human); compound 10.0 µM) was 104%. It also gave a residual activity (PRKCQ (human); compound 10.0 µM) of 57%, a residual activity ([4]; compound 10.0 µM) of 5% and a residual activity (CHUK (human); compound 10.0 µM) of 36%. The residual activity (ROS1 (human); compound 10.0 µM) was 54%, the residual activity (FLT1 (human); compound 10.0 µM) was 6% and the residual activity (PRKACA (human); compound 10.0 µM) was 51%. It also gave a residual activity ([5]; compound 10.0 µM) of 62%, a residual activity (RPS6KA3 KD1 KD2 (human); compound 10.0 µM) of 24% and a residual activity (MAP2K1 (human); compound 10.0 µM) of 43%.
C[C@@H](Nc1nc2c(C#CC3CC3)c[nH]c(=O)c2c2cc(-c3cn[nH]c3)ccc12)C(C)(C)C showed a residual activity (IRAK1 (human); compound 1.0 µM) of 102%, a residual activity ([1]; compound 1.0 µM) of 103% and a residual activity (MTOR FKBP1A (human); compound 1.0 µM) of 94%. It also gave a residual activity (MTOR (human); compound 1.0 µM) of 89%, a residual activity (MYLK3 (human); compound 1.0 µM) of 53% and a residual activity ([6]; compound 1.0 µM) of 74%. For the same compound, the residual activity (RET (human); compound 1.0 µM) was 1%, the residual activity (STK33 (human); compound 1.0 µM) was 41% and the residual activity (GRK7 (human); compound 1.0 µM) was 90%. The residual activity (EPHA5 (human); compound 1.0 µM) was 109%, the residual activity (SGK3 (human); compound 1.0 µM) was 104% and the residual activity ([2]; compound 1.0 µM) was 12%. The residual activity (LCK (human); compound 1.0 µM) was 58%, the residual activity ([3]; compound 1.0 µM) was 73% and the residual activity ([7]; compound 1.0 µM) was 55%. It also gave a residual activity (CDK5 CDK5R1 p35 (human); compound 1.0 µM) of 122%, a residual activity ([8]; compound 1.0 µM) of 49% and a residual activity ([9]; compound 1.0 µM) of 82%. For the same compound, the residual activity (CSNK1G2 (human); compound 1.0 µM) was 101%, the residual activity (HCK (human); compound 1.0 µM) was 31% and the residual activity (PAK3 (human); compound 1.0 µM) was 78%. For the same compound, the residual activity (WNK3 (human); compound 1.0 µM) was 73%, the residual activity ([10]; compound 1.0 µM) was 100% and the residual activity (PRKCQ (human); compound 1.0 µM) was 78%. For the same compound, the residual activity ([4]; compound 1.0 µM) was 1%, the residual activity (CHUK (human); compound 1.0 µM) was 102% and the residual activity (PLK1 (human); compound 1.0 µM) was 81%. The residual activity ([11]; compound 1.0 µM) was 60%, the residual activity (ROS1 (human); compound 1.0 µM) was 98% and the residual activity ([12]; compound 1.0 µM) was 13%. For the same compound, the residual activity (FLT1 (human); compound 1.0 µM) was 28%, the residual activity (PRKACA (human); compound 1.0 µM) was 106% and the residual activity (TXK (human); compound 1.0 µM) was 84%. For the same compound, the residual activity ([5]; compound 1.0 µM) was 88%, the residual activity ([13]; compound 1.0 µM) was 54% and the residual activity (RPS6KA3 KD1 KD2 (human); compound 1.0 µM) was 5%. The residual activity (MAP2K1 (human); compound 1.0 µM) was 96%.
For O=C(N[C@@H](COc1ccc2[nH]c(=O)[nH]c2c1)c1ccccc1)c1cccn(Cc2ccc(F)c(F)c2)c1=O, the residual activity (IRAK1 (human); compound 10.0 µM) was 100%, the residual activity ([1]; compound 10.0 µM) was 113% and the residual activity (MTOR FKBP1A (human); compound 10.0 µM) was 103%. It also gave a residual activity (MTOR (human); compound 10.0 µM) of 102%, a residual activity (MYLK3 (human); compound 10.0 µM) of 110% and a residual activity ([6]; compound 10.0 µM) of 104%. The residual activity (RET (human); compound 10.0 µM) was 100%, the residual activity (STK33 (human); compound 10.0 µM) was 104% and the residual activity (GRK7 (human); compound 10.0 µM) was 108%. For the same compound, the residual activity (EPHA5 (human); compound 10.0 µM) was 99%, the residual activity (SGK3 (human); compound 10.0 µM) was 117% and the residual activity ([2]; compound 10.0 µM) was 96%. For the same compound, the residual activity (LCK (human); compound 10.0 µM) was 108%, the residual activity ([3]; compound 10.0 µM) was 103% and the residual activity ([7]; compound 10.0 µM) was 102%. It also gave a residual activity (CDK5 CDK5R1 p35 (human); compound 10.0 µM) of 97%, a residual activity ([8]; compound 10.0 µM) of 114% and a residual activity ([9]; compound 10.0 µM) of 111%. The residual activity (CSNK1G2 (human); compound 10.0 µM) was 97%, the residual activity (HCK (human); compound 10.0 µM) was 110% and the residual activity (PAK3 (human); compound 10.0 µM) was 88%. It also gave a residual activity (WNK3 (human); compound 10.0 µM) of 99%, a residual activity ([10]; compound 10.0 µM) of 106% and a residual activity (PRKCQ (human); compound 10.0 µM) of 108%. The residual activity ([4]; compound 10.0 µM) was 108%, the residual activity (CHUK (human); compound 10.0 µM) was 125% and the residual activity (PLK1 (human); compound 10.0 µM) was 116%. It also gave a residual activity ([11]; compound 10.0 µM) of 110%, a residual activity (ROS1 (human); compound 10.0 µM) of 111% and a residual activity ([12]; compound 10.0 µM) of 109%. The residual activity (FLT1 (human); compound 10.0 µM) was 95%, the residual activity (PRKACA (human); compound 10.0 µM) was 117% and the residual activity (TXK (human); compound 10.0 µM) was 138%. For the same compound, the residual activity ([5]; compound 10.0 µM) was 91%, the residual activity ([13]; compound 10.0 µM) was 69% and the residual activity (RPS6KA3 KD1 KD2 (human); compound 10.0 µM) was 124%. The residual activity (MAP2K1 (human); compound 10.0 µM) was 102%.
Cc1n[nH]c2c1c(=O)n(CCCN)c1ccc(Cl)cc21 was tested, and the residual activity (RPS6KA1 KD1 KD2 (rat); compound 1.0 µM) was 6%, the residual activity (RET (human); compound 1.0 µM) was 37% and the residual activity (MAPK1 (mouse); compound 1.0 µM) was 90%. The residual activity (EPHA5 (human); compound 1.0 µM) was 94%, the residual activity (SGK3 (human); compound 1.0 µM) was 94% and the residual activity (ROCK2 (rat); compound 1.0 µM) was 88%. It also gave a residual activity (LCK (human); compound 1.0 µM) of 82%, a residual activity (HCK (human); compound 1.0 µM) of 148% and a residual activity (PRKACA (cow); compound 1.0 µM) of 81%. For the same compound, the residual activity (WNK3 (human); compound 1.0 µM) was 111%, the residual activity (PRKCQ (human); compound 1.0 µM) was 98% and the residual activity (CHUK (human); compound 1.0 µM) was 96%. It also gave a residual activity (ROS1 (human); compound 1.0 µM) of 95%, a residual activity (FLT1 (human); compound 1.0 µM) of 86% and a residual activity (PRKACA (human); compound 1.0 µM) of 74%. The residual activity ([5]; compound 1.0 µM) was 86%, the residual activity (RPS6KA3 KD1 KD2 (human); compound 1.0 µM) was 2% and the residual activity (MAP2K1 (human); compound 1.0 µM) was 97%.
Work on O=C(NCCCNc1nc(Nc2cccc(NC(=O)N3CCCC3)c2)ncc1I)c1cccs1 yielded a residual activity (IRAK1 (human); compound 1.0 µM) of 99%, a residual activity ([1]; compound 1.0 µM) of 95% and a residual activity (MYLK3 (human); compound 1.0 µM) of 107%. The residual activity (RET (human); compound 1.0 µM) was 30%, the residual activity (STK33 (human); compound 1.0 µM) was 82% and the residual activity (EPHA5 (human); compound 1.0 µM) was 89%. For the same compound, the residual activity (SGK3 (human); compound 1.0 µM) was 81%, the residual activity ([2]; compound 1.0 µM) was 73% and the residual activity (LCK (human); compound 1.0 µM) was 76%. For the same compound, the residual activity ([3]; compound 1.0 µM) was 9%, the residual activity (CDK5 CDK5R1 p35 (human); compound 1.0 µM) was 47% and the residual activity (CSNK1G2 (human); compound 1.0 µM) was 89%. It also gave a residual activity (HCK (human); compound 1.0 µM) of 99%, a residual activity (PAK3 (human); compound 1.0 µM) of 106% and a residual activity (WNK3 (human); compound 1.0 µM) of 108%. The residual activity (PRKCQ (human); compound 1.0 µM) was 103%, the residual activity ([4]; compound 1.0 µM) was -6% and the residual activity (CHUK (human); compound 1.0 µM) was 120%. For the same compound, the residual activity (ROS1 (human); compound 1.0 µM) was 117%, the residual activity (FLT1 (human); compound 1.0 µM) was 14% and the residual activity (PRKACA (human); compound 1.0 µM) was 77%. For the same compound, the residual activity ([5]; compound 1.0 µM) was 113%, the residual activity (RPS6KA3 KD1 KD2 (human); compound 1.0 µM) was 118% and the residual activity (MAP2K1 (human); compound 1.0 µM) was 79%.
